Results on four compounds are retold here after patent publication US8357676B2, “Ansamycin formulations and methods of use thereof” (Infinity Discovery, Inc., priority 2006, dated 2013).

Data set [1] in a line: In vivo exposure of various oral formulations of 17-AG, single oral dose. Conditions: female beagle dogs. The protocol: The oral bioavailability of various formulations of the compound 17-AG was investigated by making various oral formulations, dosing beagle dogs and measuring 17-AG levels in blood plasma at various time points following a single oral dose. In addition, the effect of PVP on enhancing exposure was investigated by its addition to many of the tested formulations.
In brief, different crystalline, solvated, and amorphous forms of 17-AG were dosed either as filled capsules or as suspensions. In addition, various 17-AG solutions utilizing a range of different organic, anionic, & non-ionic components were dosed by oral gavage.
The crystalline, solvated, and amorphous forms of 17-AG were made as previously described and blended with either anhydrous lactose or PVP in a Turbula blender for 15 minutes. […]
The nanosuspension was made by levigating crystalline 17-AG by high shear in a microfluidizer (Microfluidics Corp, Model: M-110L) for 10-20 minutes in Tween-80. Mean particle size (d50: […]) was measured by laser light diffraction (Malvern Corp, Mastersizer 2000).
Blood was collected pre-dose, 15, 30 minutes, 1, 2, 4, and 8 hours post-dose into tubes containing sodium heparin. […] Isolated plasma was saved in labeled screw cap freezer vials or eppendorf tubes and stored frozen (−70° C.) until analyzed for plasma 17-AG levels. […]

The test system of data set [2] is H1975, a non-small cell lung cancer cell line. The experiment in a line: H1975 mouse xenograph tumor model. The data set is classed as in vivo, Nu/Nu mice. To be noted: 5% DMSO, 75% NS, oral gavage every other day. How it is done: In the first study, H1975, a non-small cell lung cancer cell line which contains L858R and T790M mutations in EGFR, a client protein for HSP90 was utilized. 5-6 week old Nu/Nu mice were implanted with 10×10e6H1975 cells. Dosing commenced after implanted cells reached ˜150 mm3. Dosing was by oral gavage and the dosing schedule was every other day with vehicle (20% PGHS, 5% DMSO, 75% NS), and 75 mg/kg, and 100 mg/kg 17-AG in vehicle.

Data set [3] relates to H1650 lung adenocarcinoma cell line. The experiment in a line: H1650 mouse xenograph tumor model. In kind it is in vivo, Nu/Nu mice. To be noted: 50, 75 and 100 mg/kg 17-AG in 15% PVP, 5% EtOH, 80% PG, oral gavage every day. The protocol:
In the second study, H1650 lung adenocarcinoma cell line which contains a mutant form of EGFR (Del E746-A750) was utilized. 5-6 week old Nu/Nu mice were implanted with 10×10e6H1650 cells. Dosing commenced after implanted cells reached ˜100 mm3. Dosing was by oral gavage and the dosing schedule was every day with vehicle (15% PVP, 5% EtOH, 80% PG), and 50 mg/kg, 75 mg/kg, and 100 mg/kg 17-AG in vehicle.

The nature of data set [4]: Equilibrium solubility in SIF. In kind it is physicochemical. To be noted: for Crystalline 17-AG Equilibrium Solubility: average values. The protocol:
Solutions were placed at 37° C., and sample aliquots were removed at 24, 48, 72, & 96 hours. Sample aliquots were filtered (0.45 uM PVDF), diluted in SIF/MeOH and measured in triplicate on UV spectrometer.

A short description of data set [5]: In vitro dissolution of amorphous solid dispersions in simulated intestinal fluid at 37° C. Conditions: SIF 37° C., t = 5 min. The data set is classed as physicochemical. How it is done: […] To each vial was added simulated intestinal fluid (5 mL) and each was shaken at 37° C. […] The samples were then diluted in MeOH and tested using UV method for solution concentration.

Data set [6] can be described thus: Supersaturated levels of 17-AG in SIF pH 6.8 with PVP (DMSO stock diluted 1:100). The data set is classed as physicochemical. To be noted: for 17-AG Supersaturated Concentration: 37° C., average values. The protocol: Supersaturated levels of 17-AG was measured by adding 17-AG DMSO stock solutions (10, 50, 100, & 200 mg/ml) at a 1:100 dilution to SIF pH 6.8 solutions containing 0%, 0.5%, 1%, 2.5%, & 5% PVP (w/v). […] Solutions were stirred in a dissolution apparatus (Paddle speed 150 RPM, 37° C.), and aliquots of each solution were removed at 15, 30, 60, 120, 240, 360, & 1320 minute time points. Sample aliquots were filtered (0.45 uM PVDF), diluted in SIF/MeOH and measured in triplicate on UV spectrometer. Representative data are found in FIG. 25 and FIG. 26.

Data set [7] is described as follows: Oral bioavailability of amorphous 17-AG/PVP dispersion vs crystalline 17-AG, single oral capsule dose. The data set is classed as in vivo. Conditions: 15 mg/kg, beagle dogs. The protocol: A 12% 17-AG/PVP (w/w) dispersion was made utilizing rotary evaporation and characterized for purity, residual solvent level, and amorphous content as described, filled into HPMC capsules and dosed into dogs at a level of 15 mg/kg. Blood was collected pre-dose, at 15 minutes, at 30 minutes, 1 hour, 2 hours, 4 hours, 6 hours, 12 hours, and 24 hours post dose into tubes containing sodium heparin. Collected blood samples were immediately placed on wet ice and refrigerated centrifuge for isolation of plasma within 30 min of collection. Isolated plasma was saved in labeled screw cap freezer vials or eppendorf tubes and stored frozen (−70° C.) until analyzed for plasma 17-AG levels. The design of the study is as follows. A single group of dogs consisting of 2 males & 2 females was utilized for dosing, with a week washout in between each dose.

Values after ≈ are worked out from the molar mass of the structure shown.

For the compound `CO[C@H]1/C=C\C=C(/C)C(=O)NC2=CC(=O)C(N)=C(C[C@@H](C)C[C@H](OC)[C@H](O)[C@@H](C)/C=C(\C)[C@@H]1OC(N)=O)C2=O` [EtOAc Solvate of 17-AG, 17-amino-geldanamycin], in data set [1], the “exposure after oral dosing (in words)” value is “low exposure”.
As to `CO[C@H]1/C=C\C=C(/C)C(=O)NC2=CC(=O)C(N)=C(C[C@@H](C)C[C@H](OC)[C@H](O)[C@@H](C)/C=C(\C)[C@@H]1OC(N)=O)C2=O` [17-AG, 17-amino-geldanamycin], the entries for the “reduction in tumor volume as compared to vehicle treated animals” value in data set [2] (75 mg/kg 17-AG in 20% PGHS) and in data set [2] (100 mg/kg 17-AG in 20% PGHS) were roughly 35% and roughly 70%, respectively. Besides, in data set [3], the “maximum reduction in tumor volume as compared to vehicle treated animals” value amounted to 62%. Moreover, in data set [4] (simulated intestinal fluid (SIF), 37 °C, pH 6.8, fassgf or other biorelevant, thermodynamic from solid), the concentration in solution (solubility) was 4 µg/mL (≈ 7.33 µM). In data set [4] (simulated intestinal fluid (SIF), pH 6.8, fassgf or other biorelevant, thermodynamic from solid, SIF, 37° C., read-out: Equilibrium solubility of 17-AG in SIF @ 37° C.), the solubility thermodynamic was 4 µg/mL (≈ 7.33 µM). The “Supersaturated concentration of analog/polymer dispersions in SIF at 37° C. (t = 5 min)” value in data set [5] (12% load analog in PVP K-30 amorphous dispersion, target conc 2 mg/mL) is 0.712 mg/ml. In addition, the “Fold increase relative to equilibrium solubility” value in data set [5] (12% load analog in PVP K-30 dispersion) is 200 x. Further, the “time at which 17-AG starts to precipitate out” value in data set [6] (1.0 mg/ml solution in 5% PVP) came to 120 min. Also, the “17-AG Supersaturated Concentration” value in data set [6] (SIF pH 6.8, 0% PVP) was 0.5 mg/mL; in data set [6] (SIF pH 6.8, 0.5% PVP) it was 0.6 mg/mL; in data set [6] (SIF pH 6.8, 1.0% PVP) it was 0.7 mg/mL; in data set [6] (SIF pH 6.8, 5.0% PVP), 0.9 mg/mL. Further, in data set [6] (SIF pH 6.8, 5% PVP vs 0% PVP), the “increase of degree of supersaturation of 17-AG” value is reported as roughly 2 fold. The “time at which 17-AG starts to precipitate and come out of solution” value in data set [6] (SIF without PVP) is “approximately 120 minutes”.
Turning to `CO[C@H]1/C=C\C=C(/C)C(=O)NC2=CC(=O)C(N)=C(C[C@@H](C)C[C@H](OC)[C@H](O)[C@@H](C)/C=C(\C)[C@@H]1OC(N)=O)C2=O` [amorphous 17-AG, 17-amino-geldanamycin], the “exposure after oral dosing (in words)” value in data set [1] is reported as “significant exposure”.
For the compound `CO[C@H]1/C=C\C=C(/C)C(=O)NC2=CC(=O)C(N)=C(C[C@@H](C)C[C@H](OC)[C@H](O)[C@@H](C)/C=C(\C)[C@@H]1OC(N)=O)C2=O` [Crystalline 17-AG, 17-amino-geldanamycin], in data set [7] (single oral capsule), the “exposure / oral bioavailability (in words)” value is listed as “very low oral bioavailability”. Further, in data set [7] (uncoated HPMC capsule), the “Plasma levels of 17-AG following dosing” value is recorded as “below quantifiable limits”. Also, the “Crystalline 17-AG Equilibrium Solubility” value in data set [4] (SIF pH 6.8, 0% PVP, 37° C.) was determined as 4.1 µg/mL; in data set [4] (SIF pH 6.8, 0.5% PVP, 37° C.), 5.9 µg/mL; in data set [4] (SIF pH 6.8, 1.0% PVP, 37° C.) it was 6.5 µg/mL; in data set [4] (SIF pH 6.8, 2.5% PVP, 37° C.), 8.7 µg/mL; in data set [4] (SIF pH 6.8, 5.0% PVP, 37° C.) it was 11.2 µg/mL. The “increase of equilibrium solubility of crystalline 17-AG” value in data set [4] (SIF pH 6.8, 5% PVP vs 0% PVP) is reported as roughly 3 fold.
